Assay results as given in patent US20060069132A1, “Azolecarboxamide herbicides” (priority 2004, published 2006).

Tests used:
barnyardgrass [1] = experiment: Test B pre-/postemergence herbicide test; assay type: in vivo, Echinochloa crus-galli
In short: (§1)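 Seeds were planted and treated preemergence with compounds formulated in a non-phytotoxic solvent mixture containing surfactant, while plants at the 1- to 4-leaf stage (2 to 18 cm) received postemergence sprays. Flooded paddy plants were grown to the 2-leaf stage. After 13 to 15 days in a greenhouse, injury was visually rated 0–100 against untreated controls.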

Surinam grass = experiment: Test B pre-/postemergence herbicide test; assay type: in vivo, Urochloa decumbens
In short: (§2)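 Pre: seeds sown, then sprayed. Post: 1–4-leaf plants (2–18 cm) sprayed at the same time. Paddy: flooded, treated at 2-leaf stage. Formulation: non-phytotoxic solvent with surfactant. Greenhouse 13–15 days; visual 0–100 score relative to controls.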

cocklebur = experiment: Test B pre-/postemergence herbicide test; assay type: in vivo, Xanthium strumarium
In short: as §1

corn = experiment: Test B pre-/postemergence herbicide test; assay type: in vivo, Zea mays
In short: as §2

large crabgrass = experiment: Test B pre-/postemergence herbicide test; assay type: in vivo, Digitaria sanguinalis
In short: as §2

lambsquarters = experiment: Test B pre-/postemergence herbicide test; assay type: in vivo, Chenopodium album
In short: as §2

morningglory = experiment: Test B pre-/postemergence herbicide test; assay type: in vivo, Ipomoea coccinea
In short: as §1

velvetleaf = experiment: Test B pre-/postemergence herbicide test; assay type: in vivo, Abutilon theophrasti
In short: as §2

blackgrass = experiment: Test B postemergence herbicide test; assay type: in vivo, Alopecurus myosuroides
In short: (§3)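 Postemergence plants were sprayed with formulated test chemicals at 2 to 18 cm height (1- to 4-leaf stage); paddy species were grown to the 2-leaf stage. After 13 to 15 days in a greenhouse, injury was rated visually against untreated controls on a 0–100 scale (0 = no effect, 100 = complete control).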

wheat = experiment: Test B postemergence herbicide test; assay type: in vivo, Triticum aestivum; set-up: key to Wheat plant response rating: 0 = no effect, 100 = complete control
In short: (§4)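 Greenhouse test; postemergence application to plants at 1–4 leaves (2–18 cm); paddy species at 2 leaves; evaluated visually vs controls at 13–15 days; scale 0–100 (100 = complete control).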

wild oat = experiment: Test B postemergence herbicide test; assay type: in vivo, Avena fatua
In short: as §4

rice = experiment: Test B flooded paddy test; assay type: in vivo, Oryza sativa; details: 1000 g ai/ha, scale 0 to 100 (0 no effect, 100 complete control)
In short: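 Plants grow to 1- to 4-leaf stage (2–18 cm) for postemergence spraying, or to 2-leaf stage for the paddy test. Formulated compound is applied. Greenhouse holding lasts 13–15 days. Response is scored visually relative to controls, 0 no effect to 100 complete control; a dash means no result.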

[2] = system: small flower umbrella sedge; experiment: Test B flooded paddy test; assay type: in vivo, Cyperus difformis; details: 1000 g ai/ha, scale 0 to 100 (0 no effect, 100 complete control)
In short: as §3

ducksalad = experiment: Test B flooded paddy test; assay type: in vivo, Heteranthera limosa; details: 1000 g ai/ha, scale 0 to 100 (0 no effect, 100 complete control)
In short: as §3

barnyardgrass [3] = experiment: Test B flooded paddy test; assay type: in vivo, Echinochloa crus-galli; details: 1000 g ai/ha, scale 0 to 100 (0 no effect, 100 complete control)
In short: as §3

[4] = 125 g ai/ha; 0 = no effect, 100 = complete control; preemergence
[5] = 500 g ai/ha; visual rating, 0 = no effect, 100 = complete control; preemergence
[6] = postemergence, 125 g ai/ha; visual rating, scale 0 (no effect) to 100 (complete control)
[7] = postemergence, 500 g ai/ha; scale 0 to 100, 0 is no effect, 100 is complete control
[8] = 125 g ai/ha; 0 is no effect, 100 is complete control; preemergence
[9] = 125 g ai/ha; visual rating, scale 0 (no effect) to 100 (complete control); postemergence
[10] = 500 g ai/ha; visual rating 0-100, 0 no effect, 100 complete control; preemergence
[11] = postemergence, 500 g ai/ha; visual rating, scale 0 (no effect) to 100 (complete control)
[12] = preemergence, 125 g ai/ha; 0 to 100 scale, 0 is no effect, 100 is complete control

C#CCNC(=O)c1cc(NC(=O)c2cc(C(C)(C)C)nn2CC)ccn1 [Compound 283]
Barnyardgrass plant response rating (0 to 100 scale) (barnyardgrass [1]; [4]): 0 | Plant response rating, Barnyardgrass (barnyardgrass [1]; [5]): 10 | Barnyardgrass plant response rating (barnyardgrass [1]; [6]): 0 | Barnyardgrass plant response rating (barnyardgrass [1]; [7]): 0 | Surinam Grass plant response rating (0 to 100 scale) (Surinam grass; [4]): 0 | Plant response rating, Surinam Grass (Surinam grass; [5]): 0 | Surinam Grass plant response rating (Surinam grass; [6]): 0 | Surinam Grass plant response rating (Surinam grass; [7]): 10 | Cocklebur plant response rating (0 to 100 scale) (cocklebur; [4]): 0 | Plant response rating, Cocklebur (cocklebur; [5]): 0 | Cocklebur plant response rating (cocklebur; [6]): 0 | Cocklebur plant response rating (cocklebur; [7]): 0 | Plant response rating, Corn (corn; [5]): 0 | Corn plant response rating (corn; [6]): 0 | Corn plant response rating (corn; [7]): 10 | Crabgrass, Large plant response rating (0 to 100 scale) (large crabgrass; [4]): 0 | Plant response rating, Crabgrass, Large (large crabgrass; [5]): 50 | Crabgrass, Large plant response rating (large crabgrass; [6]): 0 | Crabgrass, Large plant response rating (large crabgrass; [7]): 10 | Lambsquarters plant response rating (0 to 100 scale) (lambsquarters; [4]): 0 | Plant response rating, Lambsquarters (lambsquarters; [5]): 100 | Lambsquarters plant response rating (lambsquarters; [6]): 0 | Lambsquarters plant response rating (lambsquarters; [7]): 30 | Morningglory plant response rating (0 to 100 scale) (morningglory; [4]): 0 | Plant response rating, Morningglory (morningglory; [5]): 0 | Morningglory plant response rating (morningglory; [6]): 0 | Morningglory plant response rating (morningglory; [7]): 30 | Velvetleaf plant response rating (0 to 100 scale) (velvetleaf; [4]): 0 | Plant response rating, Velvetleaf (velvetleaf; [5]): 0 | Velvetleaf plant response rating (velvetleaf; [6]): 0 | Velvetleaf plant response rating (velvetleaf; [7]): 0 | Blackgrass plant response rating (blackgrass; [6]): 20 | Blackgrass plant response rating (blackgrass; [7]): 40 | Wheat plant response rating (wheat; [6]): 20 | Wheat plant response rating (wheat; [7]): 20 | Oat, Wild plant response rating (wild oat; [6]): 0 | Oat, Wild plant response rating (wild oat; [7]): 10 | Rice plant response rating (rice): 10 | Sedge, Umbrella plant response rating [2]: 80 | Ducksalad plant response rating (ducksalad): 70 | Barnyardgrass plant response rating (barnyardgrass [3]): 20

C#CCNC(=O)c1cccc(NC(=O)c2sc(C(C)(C)C)nc2CC)c1 [Compound 319]
Plant response rating (0 to 100 scale), Barnyardgrass (barnyardgrass [1]; [8]): 50 | Barnyardgrass plant response rating (barnyardgrass [1]; [9]): 0 | Plant response rating, Barnyardgrass (barnyardgrass [1]; [5]): 80 | Barnyardgrass plant response rating (barnyardgrass [1]; [7]): 20 | Plant response rating (0 to 100 scale), Surinam Grass (Surinam grass; [8]): 20 | Surinam Grass plant response rating (Surinam grass; [9]): 10 | Plant response rating, Surinam Grass (Surinam grass; [5]): 60 | Surinam Grass plant response rating (Surinam grass; [7]): 20 | Plant response rating (0 to 100 scale), Cocklebur (cocklebur; [8]): 0 | Cocklebur plant response rating (cocklebur; [9]): 20 | Plant response rating, Cocklebur (cocklebur; [5]): 10 | Cocklebur plant response rating (cocklebur; [7]): 40 | Plant response rating (0 to 100 scale), Corn (corn; [8]): 10 | Corn plant response rating (corn; [9]): 20 | Plant response rating, Corn (corn; [5]): 40 | Corn plant response rating (corn; [7]): 20 | Plant response rating (0 to 100 scale), Crabgrass, Large (large crabgrass; [8]): 50 | Crabgrass, Large plant response rating (large crabgrass; [9]): 20 | Plant response rating, Crabgrass, Large (large crabgrass; [5]): 100 | Crabgrass, Large plant response rating (large crabgrass; [7]): 20 | Plant response rating (0 to 100 scale), Lambsquarters (lambsquarters; [8]): 20 | Lambsquarters plant response rating (lambsquarters; [9]): 50 | Plant response rating, Lambsquarters (lambsquarters; [5]): 100 | Lambsquarters plant response rating (lambsquarters; [7]): 60 | Plant response rating (0 to 100 scale), Morningglory (morningglory; [8]): 10 | Morningglory plant response rating (morningglory; [9]): 10 | Plant response rating, Morningglory (morningglory; [5]): 20 | Morningglory plant response rating (morningglory; [7]): 20 | Plant response rating (0 to 100 scale), Velvetleaf (velvetleaf; [8]): 0 | Velvetleaf plant response rating (velvetleaf; [9]): 10 | Plant response rating, Velvetleaf (velvetleaf; [5]): 30 | Velvetleaf plant response rating (velvetleaf; [7]): 20 | Blackgrass plant response rating (blackgrass; [9]): 0 | Blackgrass plant response rating (blackgrass; [7]): 0 | Wheat plant response rating (wheat; [9]): 10 | Wheat plant response rating (wheat; [7]): 30 | Oat, Wild plant response rating (wild oat; [9]): 20 | Oat, Wild plant response rating (wild oat; [7]): 20 | Rice plant response rating (rice): 70 | Sedge, Umbrella plant response rating [2]: 80 | Ducksalad plant response rating (ducksalad): 90 | Barnyardgrass plant response rating (barnyardgrass [3]): 10

CCCCOc1cccc(NC(=O)c2cc(C(C)(C)C)nn2CC)c1 [Compound 137]
Plant response rating, Barnyardgrass (barnyardgrass [1]; [10]): 70 | Barnyardgrass plant response rating (barnyardgrass [1]; [6]): 30 | Barnyardgrass plant response rating (barnyardgrass [1]; [11]): 40 | Plant response rating, Barnyardgrass (barnyardgrass [1]; [12]): 10 | Plant response rating, Surinam Grass (Surinam grass; [10]): 80 | Surinam Grass plant response rating (Surinam grass; [6]): 20 | Surinam Grass plant response rating (Surinam grass; [11]): 70 | Plant response rating, Surinam Grass (Surinam grass; [12]): 20 | Plant response rating, Cocklebur (cocklebur; [10]): 0 | Cocklebur plant response rating (cocklebur; [6]): 50 | Cocklebur plant response rating (cocklebur; [11]): 100 | Plant response rating, Cocklebur (cocklebur; [12]): 0 | Plant response rating, Corn (corn; [10]): 10 | Corn plant response rating (corn; [6]): 10 | Corn plant response rating (corn; [11]): 20 | Plant response rating, Corn (corn; [12]): 10 | Plant response rating, Crabgrass, Large (large crabgrass; [10]): 100 | Crabgrass, Large plant response rating (large crabgrass; [6]): 10 | Crabgrass, Large plant response rating (large crabgrass; [11]): 30 | Plant response rating, Crabgrass, Large (large crabgrass; [12]): 80 | Plant response rating, Lambsquarters (lambsquarters; [10]): 80 | Lambsquarters plant response rating (lambsquarters; [6]): 80 | Lambsquarters plant response rating (lambsquarters; [11]): 80 | Plant response rating, Lambsquarters (lambsquarters; [12]): 10 | Plant response rating, Morningglory (morningglory; [10]): 20 | Morningglory plant response rating (morningglory; [6]): 0 | Morningglory plant response rating (morningglory; [11]): 60 | Plant response rating, Morningglory (morningglory; [12]): 0 | Plant response rating, Velvetleaf (velvetleaf; [10]): 60 | Velvetleaf plant response rating (velvetleaf; [6]): 40 | Velvetleaf plant response rating (velvetleaf; [11]): 60 | Plant response rating, Velvetleaf (velvetleaf; [12]): 10 | Blackgrass plant response rating (blackgrass; [6]): 10 | Blackgrass plant response rating (blackgrass; [11]): 20 | Wheat plant response rating (wheat; [6]): 10 | Wheat plant response rating (wheat; [11]): 20 | Oat, Wild plant response rating (wild oat; [6]): 30 | Oat, Wild plant response rating (wild oat; [11]): 70 | Rice plant response rating (rice; visual rating, 13 to 15 days): 20 | Sedge, Umbrella plant response rating ([2]; visual rating, 13 to 15 days): 90 | Ducksalad plant response rating (ducksalad; visual rating, 13 to 15 days): 30 | Barnyardgrass plant response rating (barnyardgrass [3]; visual rating, 13 to 15 days): 20
